# How the values were obtained:
# [1] = system: Male Wistar rats; assay: Acute activity after single p.o. administration, paw withdrawal test (Randall and Selitto), % of analgesia; format: in vivo, rat; details: for analgesic activity on separate administration (oxycodone study): oxycodone 5 mg/kg; for analgesic activity on separate administration (tramadol study): tramadol 125 mg/kg
# Protocol: (§1) Male Wistar rats (250-300 g) were housed in a room maintained at a temperature of 20±2° C. under 12 h-12 h light-dark cycles. The animals had free access to food and water. Experimental groups consisted of six rats.
# (§2) Drugs • Morphine at a dose of 15 mg/kg, codeine at a dose of 175 mg/kg, tramadol at a dose of 125 mg/kg and oxycodone at a dose of 5 mg/kg were dissolved in distilled water; • Dihydrocodeine at a dose of 50 mg/kg was suspended in 1% solution of methylcellulose; • Magnesium lactate (in micronized form)—at a dose of 15 mg magnesium ions/kg (150 mg of magnesium lactate/kg) was suspended in 0.5% solution of methylcellulose; • Magnesium lactate in normal (non-micronized) form—at doses of 15 or 30 mg magnesium ions/kg (150 or 300 mg of magnesium lactate/kg, respectively) was suspended in 0.5% solution of methylcellulose; • Magnesium citrate (in micronized and normal form)—at a dose of 15 mg magnesium ions/kg (112 mg of magnesium citrate/kg) was dissolved in distilled water; • Magnesium hydroaspartate (in micronized and normal form)—at a dose of 15 mg magnesium ions/kg (216 mg of magnesium hydroaspartate/kg) was suspended in 0.5% solution of methylcellulose; • Magnesium chloride (in micronized and normal form)—at a dose of 15 mg magnesium ions/kg (59.5 mg of magnesium chloride/kg) was dissolved in distilled water; • Control animals received a 0.5% solution of methylcellulose, a 1% solution of methylcellulose and distilled water, respectively, according to the same time schedule.
# Magnesium salts and investigated opioids were administered concomitantly.
# The micronized form of magnesium salts used in experiments contains particles of magnesium compounds of size D90<50 μm.
# The normal magnesium salts form used in experiments contains particles of sizes commonly available in the market.
# Acute activity of investigated drugs was measured in short time periods (from 5 to 300 min) after single administration.
# (§3) All drugs were administered per os (p.o.); literally—orally. However, in practice, drugs were administered intragastric via a gastric tube.
# (§4) Changes in pain thresholds were determined using a mechanical stimuli—the modification of the classic paw withdrawal test described by Randall and Selitto [1957]. In order to produce mechanical stimulation, progressively increasing pressure was applied to the dorsal surface of the rat's paw using an analgesymeter. The instrument used increased the force on the paw at a rate of 32 grams per second. The nociceptive threshold was defined as force in grams, at which the rat attempted to withdraw its right hindpaw and values of pressure were recorded at this very moment. At least two observers controlled the response.
# (§5) Nociceptive thresholds (average of two trials) measured for each animal before single administration of investigated drugs (measurement of acute activity) or in day 0 before the first administration (measurement of prolonged activity) constituted the baseline pain threshold—A. Next, measurements of the withdrawal threshold to mechanical stimuli were performed at 5, 15, 30, 60, 90, 120, 180, 240, 300 min after drug administration (measurements of acute activity) or every day before drug administration (measurements of prolonged activity)—B.
# (§6) In all experimental sessions (i.e. every day, each drug investigated) values of thresholds obtained (B) were compared to baseline (A).
# (§7) Changes in pain threshold were calculated as a percent of baseline value according to the following formula:
# (§8) [formula] • C—% of analgesia; A—pressure (in g), baseline pain threshold; B—pressure (in g) in consecutive measurements.
# (§9) Percents of analgesia values calculated as above for individual animals were subsequently used to calculate average values in particular experimental groups and for statistical analysis.
# The results are expressed as mean values±standard deviation of the mean (±S.E.M.).
# [2] = system: Male Wistar rats; assay: Prolonged activity on repeated daily p.o. administration (7 or 10 days), paw withdrawal test (Randall and Selitto); format: in vivo, rat; details: for analgesic activity on separate administration, 7 days (oxycodone study): oxycodone 5 mg/kg; for pain threshold on separate administration, 10 days (tramadol study): tramadol 125 mg/kg
# Protocol: as §1, §2
# Prolonged activity of the investigated drugs was measured the following day after initial administration, but before the next administration as well as after cessation of administration. Drugs were administered for seven consecutive days (administration of morphine, codeine, dihydrocodeine, oxycodone) or for ten days (administration of tramadol).
# as §3, §4, §5, §6, §7, §8, §9
# The results are expressed as mean values±standard […] of the mean (±S.E.M.). The statistical significance of differences between groups was evaluated by Student's t-test. p≦0.05 was accepted as statistically significant.
# [3] = single administration, 15 mg magnesium ions/kg p.o. with dihydrocodeine 50 mg/kg p.o.
# [4] = single administration, 15 mg magnesium ions/kg p.o. with morphine 15 mg/kg p.o.
# [5] = single administration, 15 mg magnesium ions/kg p.o. with oxycodone 5 mg/kg p.o.
# [6] = single administration, 15 mg magnesium ions/kg p.o. with tramadol 125 mg/kg p.o.
# [7] = single separate administration p.o., magnesium salts 15 mg magnesium ions/kg
# [8] = 30 mg magnesium ions/kg p.o. with codeine 175 mg/kg p.o., 7 days
# [9] = 30 mg magnesium ions/kg p.o. with morphine 15 mg/kg p.o., 7 days
# [10] = separate administration p.o., magnesium lactate micronized 15 or normal 30 mg magnesium ions/kg
structure (smiles),measurement,setting,value
"CC(O)C(=O)[O-].CC(O)C(=O)[O-].[Mg+2] (stereo not shown) [normal magnesium lactate, Magnesium lactate]",effect on analgesic activity of codeine,"[1]; single administration, 15 mg magnesium ions/kg p.o. with codeine 175 mg/kg p.o.",significantly enhanced the analgesic activity of codeine
same,activity on dihydrocodeine analgesia in comparison (to micronized form / to magnesium lactate),[1]; [3],somewhat weaker
same,effect on dihydrocodeine analgesia,[1]; [3],significantly enhanced dihydrocodeine analgesia
same,time course of activity on dihydrocodeine analgesia,[1]; [3],gradually increased and reached a maximum between min 45 and 90 of the measurements and then became weaker by min 210
same,effect on morphine analgesia,[1]; [4],significantly enhanced morphine analgesia
same,enhancement of morphine analgesia lasted up to,[1]; [4],180 min
same,time at which enhancement of morphine analgesia appeared,[1]; [4],60 min
same,effect on oxycodone analgesia,[1]; [5],significantly enhanced oxycodone analgesia
same,time at which activity on oxycodone analgesia appeared,[1]; [5],5 min
same,time course of activity on oxycodone analgesia,[1]; [5],weakened by min 15 and 30 and was maintained up to min 45
same,activity on tramadol analgesia in comparison (to micronized form / to magnesium chloride),[1]; [6],weaker than the micronized form
same,effect on antinociceptive activity of tramadol,[1]; [6],increased antynociceptive activity of tramadol
same,analgesic activity on separate administration (codeine study),"[1]; single separate administration p.o., codeine 175 mg/kg, magnesium salts 15 mg magnesium ions/kg",did not exhibit analgesic activity
same,analgesic activity / pain perception threshold on separate administration (dihydrocodeine study),"[1]; single separate administration p.o., dihydrocodeine 50 mg/kg, magnesium salts 15 mg magnesium ions/kg",did not exhibit analgesic activity
same,analgesic activity / pain threshold when administered alone (morphine study),"[1]; single separate administration p.o., morphine 15 mg/kg, magnesium salts 15 mg magnesium ions/kg",Neither morphine nor magnesium lactate and chloride in micronized or normal form administered alone showed analgesic activity
same,analgesic activity on separate administration (oxycodone study),[1]; [7],showed no analgesic activity
same,analgesic activity on separate administration (tramadol study),[1]; [7],did not exhibit analgesic activity
same,activity on codeine analgesia compared to micronized form,[2]; [8],significantly weaker
same,days on which activity on codeine analgesia appeared,[2]; [8],only appeared on days 6 and 7
same,activity on dihydrocodeine analgesia compared to micronized form,"[2]; 30 mg magnesium ions/kg p.o. with dihydrocodeine 50 mg/kg p.o., 7 days",significantly weaker in comparison to the micronized form
same,activity on morphine analgesia compared to micronized form,[2]; [9],much weaker
same,days on which activity on morphine analgesia appeared,[2]; [9],only on days 6 and 7
same,"analgesic activity on separate administration, 7 days (codeine study)","[2]; separate administration p.o., codeine 175 mg/kg, magnesium lactate micronized 15 or normal 30 mg magnesium ions/kg",did not exhibit analgesic activity
same,"pain threshold on separate administration, 7 days (dihydrocodeine study)","[2]; separate administration p.o., dihydrocodeine 50 mg/kg, magnesium lactate micronized 15 or normal 30 mg magnesium ions/kg",did not alter the pain threshold
same,"pain threshold on separate administration, 7 days (morphine study)","[2]; separate administration p.o., morphine 15 mg/kg, magnesium lactate micronized 15 or normal 30 mg magnesium ions/kg",did not alter the pain threshold
same,"analgesic activity on separate administration, 7 days (oxycodone study)",[2]; [10],did not exhibit analgesic activity
same,"pain threshold on separate administration, 10 days (tramadol study)",[2]; [10],did not alter the pain threshold
"COc1ccc2c3c1O[C@H]1C(=O)CC[C@@]4(O)[C@@H](C2)N(C)CC[C@]314 [oxycodone, reference compound]",analgesic activity on separate administration (oxycodone study),[1]; [7],showed no analgesic activity
same,"analgesic activity on separate administration, 7 days (oxycodone study)",[2]; [10],did not exhibit analgesic activity
"COc1cccc(C2(O)CCCCC2CN(C)C)c1 (stereo not shown) [tramadol, reference compound]",analgesic activity on separate administration (tramadol study),[1]; [7],did not exhibit analgesic activity
same,"pain threshold on separate administration, 10 days (tramadol study)",[2]; [10],insignificantly intensified the threshold for mechanical nociceptive stimuli from days 6 to 10

# From patent US9101577B2, “Analgesic pharmaceutical composition for oral administration” (Warszawski Uniwersytet Medyczny, priority 2011, dated 2015)
